Values after ≈ are worked out from the molar mass of the structure shown.

Here are results for 66 molecules from PubChem BioAssay AID1996.

For this data set the following is noted: buffer; pH 7.4; 200.0 µM.
Consider `Cc1nn(C)c(Oc2ccccc2)c1CCNC(=O)C(C)(C)C`, for which the solubility (kinetic) (in general, solubility judged after dilution from a stock solution rather than from solid) was > 47.3 µg/mL. For `Cc1cccc(C)c1OP(N)(=O)Oc1c(C)cccc1C` the value was 10.8 µg/mL (≈ 35.4 µM). Next, `Cc1csc(SCC(=O)NCc2cccc(Cl)c2)n1`: > 46.9 µg/mL; `CCN(Cc1ccccc1)Cc1ccc(OCc2ccccc2)c(OC)c1`: 10.3 µg/mL (≈ 28.5 µM). For `CCc1ccc(C(=O)Nc2nc3ccccc3[nH]2)cc1` the value was 0.5 µg/mL (≈ 1.88 µM); for `CC(C)C(=O)Nc1ccc(S(=O)(=O)Nc2ccccn2)cc1`, > 47.9 µg/mL; for `O=C(O)C1CC=CCC1C(=O)Nc1cccc([N+](=O)[O-])c1` (stereo unspecified), > 43.5 µg/mL. `CC(=O)c1csc(-c2ccccc2)n1` came in with a kinetic solubility of 16.6 µg/mL (≈ 81.7 µM). For `C=CCN1C2CCCC1CC(NC(=S)Nc1ccc(Cl)cc1)C2` (stereo unspecified) the value was > 52.5 µg/mL; for `CC(NC(=O)c1ccc(C#N)cc1)C1CC2CCC1C2` (stereo unspecified), > 40.3 µg/mL; for `C=CCON/C(CCC)=C1\C(=O)C(C(=O)OC)C(C)(C)CC1=NC` (stereo unspecified), 40.4 µg/mL (≈ 120 µM). Next, `O=C(Nc1ccccc1F)C(c1ccccc1)c1ccccc1`: < 0.7 µg/mL; `CC12CCC(C[N+](C)(C)C1)C2(C)C.[I-]` (stereo unspecified): > 46.4 µg/mL; `NS(=O)(=O)c1ccc(NC(=O)COC(=O)Cn2cnc3ccccc3c2=O)cc1`: 18 µg/mL (≈ 43.2 µM). For `O=C(NC1=NCCCCC1)c1cccc2ccccc12` the value was > 40 µg/mL; for `O=C(Cc1ccccc1F)Nc1ccccc1N1CCCC1`, 27.8 µg/mL (≈ 93.2 µM). The molecule `CCC(C)NC(=O)c1cc2c(=O)n(CC)c3ccccc3c2s1` (stereo unspecified) had a kinetic solubility of 2.3 µg/mL (≈ 7 µM). `Cc1ccc(Cn2c(=O)oc3ccccc32)cc1` displayed a kinetic solubility of 1 µg/mL (≈ 4.18 µM). Turning to `COc1ccc(NC(=O)COC(=O)Cc2ccsc2)c(OC)c1`, the kinetic solubility stood at 50.1 µg/mL (≈ 149 µM). For `CCCN(CCC)C(=O)CC(c1ccccc1)c1ccco1` (stereo unspecified) the value was > 44.9 µg/mL; for `CCCCNC(=O)c1cc2cc(OC)ccc2[nH]1`, 15.4 µg/mL (≈ 62.5 µM); for `Cc1ccc(NC(=S)NCC(C)CSc2ccc(Cl)cc2)cc1` (stereo unspecified), 1.1 µg/mL (≈ 3.01 µM). For the molecule `Cc1ccc(-c2csc(NC(=O)c3ccccc3F)c2C(=O)O)cc1`, the solubility (kinetic) was > 53.3 µg/mL.

Molecule `O=C(CN1C(=O)NC2(CCCCCC2)C1=O)Nc1ccc(Cl)c([N+](=O)[O-])c1` yielded a kinetic solubility of 5.8 µg/mL (≈ 14.7 µM). Next, `COc1ccc(N=Cc2c(O)n(C)c(=O)n(C)c2=O)cc1`: 11.1 µg/mL (≈ 38.4 µM); `CC/C(=N\N1CCCCC1)c1c(O)[nH]c(=O)[nH]c1=O`: > 39.9 µg/mL.

Turning to `Cc1cc(-c2onc(C)c2C(=O)O)no1`, the kinetic solubility is > 31.2 µg/mL. For `COc1ccccc1CC(=O)N1CCN(C(=O)c2ccco2)CC1` the value was 48.3 µg/mL (≈ 147 µM); for `Cc1nc(-c2ccc3c(c2)OCCCO3)cs1`, 29.1 µg/mL (≈ 118 µM).

As for `COc1ccccc1/C=C1\SC(N2CCC(C)CC2)=NC1=O`, the kinetic solubility is 35 µg/mL (≈ 111 µM). `O=C(O)Cc1c(-c2ccccc2)c2cc(Cl)ccc2[nH]c1=O`: the kinetic solubility is > 47.1 µg/mL. Next, `Cc1c[nH]c2ccccc12`: 6.8 µg/mL (≈ 51.8 µM).

`CN1c2ccccc2C(=O)/C(=C\Nc2ccc(F)cc2)S1(=O)=O`: the solubility (kinetic) was < 0.4 µg/mL. Next, `NC(=O)c1ccccc1NS(=O)(=O)c1ccc(F)cc1`: > 44.1 µg/mL; `CC1(C)Oc2ccc(C(=O)NC3CCCCC3)cc2N(CC#N)C1=O`: 12.9 µg/mL (≈ 37.8 µM).

The molecule `Cc1cccc(Nc2c3c(nc4ccccc24)CCC3)c1.Cl` registered a kinetic solubility of 44.9 µg/mL. For `Cc1ccc(C(C)NC(=O)c2ccncc2)cc1C` (stereo unspecified), the solubility (kinetic) was > 38.1 µg/mL. Next, `COC(=O)c1ccc(/C=C2\Oc3ccccc3NC2=O)cc1`: 1 µg/mL (≈ 3.39 µM); `Cc1cc(C)c[n+](C(C)C(=O)c2ccc(Cl)cc2)c1.[Br-]` (stereo unspecified): > 53.2 µg/mL. For `Cc1ccccc1COc1ccc(/C=C(\C#N)C(N)=O)cc1`, the solubility (kinetic) is < 0.3 µg/mL. Next, `O=C(c1ccccc1)c1cccn1CC(=O)N1CCc2ccccc2C1`: 41.4 µg/mL (≈ 120 µM); `S=C(Nc1ccc(Cl)c(Cl)c1)N1CCN(c2ccccn2)CC1`: 0.9 µg/mL (≈ 2.45 µM).

As to `Cc1nnc(SC(C)C(=O)Nc2ccc(Cl)cc2Cl)[nH]c1=O` (stereo unspecified), the kinetic solubility is > 53.9 µg/mL. Next, `c1ccc(-c2nc3nc4ccccc4nc3n2CC2CCCO2)cc1` (stereo unspecified): > 49.6 µg/mL; `Cc1ccccc1-c1noc(CCC(=O)NCc2ccco2)n1`: 42.1 µg/mL (≈ 135 µM); `COC(=O)C(C)(N)Cc1ccc(O)cc1.Cl` (stereo unspecified): > 36.9 µg/mL. For `COCCNc1oc(Cc2cccc3ccccc23)nc1C#N` the value was 43.3 µg/mL (≈ 141 µM); for `CCC1(C)Cc2ccccc2-c2nc(SC)[nH]c(=O)c21` (stereo unspecified), < 0.3 µg/mL; for `Cc1ccccc1OCC(=O)OC(C)C(=O)NC1CCCC1` (stereo unspecified), > 45.8 µg/mL. Next, `CS(=O)c1ccc(-n2c(=O)n(Cc3ccccc3)c(=O)c3[nH]cnc32)cc1` (stereo unspecified): > 57.1 µg/mL; `CCOC(=O)c1c(C)[nH]c(C)c1C(=O)COC(=O)CCc1ccccc1`: > 53.6 µg/mL; `Cc1nc2ccc(NC(=S)N3CCOCC3)cc2nc1C`: 39.3 µg/mL (≈ 130 µM). The molecule `CCCCCC(=O)Nc1ncc2c(n1)CC(c1cccs1)CC2=O` (stereo unspecified) gave a solubility (kinetic) of 4.4 µg/mL (≈ 12.8 µM). Turning to `O=C(Nc1ccc(Cl)c(Cl)c1)c1ccccc1NC(=O)C1CC=CCC1C(=O)O` (stereo unspecified), the solubility (kinetic) is > 65 µg/mL. For the molecule `CSc1nc2ccc(Br)cc2[nH]1`, the kinetic solubility is 35.7 µg/mL (≈ 147 µM). For `Cc1ccc(SCC(=O)NC(=O)NC(C)C)c(C)c1` the value was 20 µg/mL (≈ 71.3 µM).

Regarding `CSc1nc2nc3c(cc2c(=O)n1-c1cccc(C)c1)COC(C)(C)C3`, the solubility (kinetic) stood at 2.6 µg/mL (≈ 7.08 µM).

As for `NC1=NC(=O)CC(C(=O)Nc2cccc3ccccc23)S1` (stereo unspecified), the kinetic solubility was > 44.9 µg/mL. For `CCn1ccnc1CN1CCN(CCC(C)C)C(CCO)C1` (stereo unspecified) the value was > 46.3 µg/mL. Next, `O=C(CN1C(=O)S/C(=C/c2ccncc2)C1=O)Nc1ccccc1`: 5.5 µg/mL (≈ 16.2 µM); `Cn1cnc(S(=O)(=O)NC2CCN(Cc3c(F)cccc3Cl)CC2)c1`: > 58 µg/mL; `COc1ccc(-c2cn(-c3ccc(C)c(Cl)c3)c(=S)[nH]2)cc1OC`: 11.9 µg/mL (≈ 33 µM). Next, `CCOC(=O)C(=O)N1CCC(C(=O)OCC)CC1`: > 38.6 µg/mL; `CSc1ncc(CO)n1Cc1ccccc1`: > 35.1 µg/mL; `Cc1cc(C)c2oc(-c3cccc(N)c3)nc2c1`: 3 µg/mL (≈ 12.6 µM). In the case of `COc1ccccc1N1CCN(C(=O)c2cc3cc(C)ccc3[nH]2)CC1`, the solubility (kinetic) is < 0.2 µg/mL.
